In ChEMBL document CHEMBL1201862, “PubChem BioAssay data set” (2004) one finds AC50, IC50 and EC50 data, which are given here for 12 compounds.

Activity calls are given as the source filed them.

Assay [1] is described as follows: miR-122 activators in hepatoma reporter cells, dose response, cell-based, Huh7 psiCHECK-miR122, Renilla luciferase, cherry-picked (AID 651956).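 Further: huh7 hepatoma cells stably carrying a psiCHECK-2 miR-122 sensor plasmid; renilla luciferase signal reporting endogenous miR-122 activity after 48 h compound exposure.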 Type of assay: functional.
Assay [2] is described as follows: P. falciparum Dd2 growth inhibitors, dose response, SYBR Green, cherry-picked samples (AID 1159567). Type of assay: functional, cell-based.
Assay [3] can be described thus: HepG2 cell cytotoxicity, dose response, cytotoxicity control, cherry-picked samples (AID 1159577). The format is functional, cell-based.
Assay [4] can be described thus: HEK293T cytotoxicity, dose response, cytotoxicity control for miR-122 modulator project, cell-based, activator set, cherry-pick (AID 720690).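 Further: HEK293T human cells scored for general mammalian cytotoxicity.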 Type of assay: functional.
Assay [5] is described as follows: HEK293T cytotoxicity, dose response, cytotoxicity control for miR-122 modulator project, cell-based, inhibitor set, cherry-pick, set 2 (AID 720697). Type of assay: functional.
The target in assay [6] is T1, Long-chain-fatty-acid--AMP ligase FadD28 (Mycobacterium tuberculosis, UniProt P9WQ59).
T1 sequence (P9WQ59 whole entry): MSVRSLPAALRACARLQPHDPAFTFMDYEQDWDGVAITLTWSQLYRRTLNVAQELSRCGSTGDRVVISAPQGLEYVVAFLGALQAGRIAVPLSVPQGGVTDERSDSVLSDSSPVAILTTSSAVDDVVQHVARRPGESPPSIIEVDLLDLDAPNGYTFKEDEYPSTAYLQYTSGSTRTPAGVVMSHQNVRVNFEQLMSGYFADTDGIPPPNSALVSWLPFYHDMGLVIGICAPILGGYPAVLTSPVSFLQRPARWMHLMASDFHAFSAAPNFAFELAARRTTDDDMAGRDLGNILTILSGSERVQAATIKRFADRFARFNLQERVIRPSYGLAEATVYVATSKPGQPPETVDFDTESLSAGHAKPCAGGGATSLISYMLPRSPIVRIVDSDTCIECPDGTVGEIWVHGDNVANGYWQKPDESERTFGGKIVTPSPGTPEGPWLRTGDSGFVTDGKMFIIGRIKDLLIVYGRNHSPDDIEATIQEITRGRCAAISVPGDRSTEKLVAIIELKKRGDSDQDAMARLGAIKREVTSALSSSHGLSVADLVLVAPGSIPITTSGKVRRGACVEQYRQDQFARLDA
As to the kind of experiment: Fluorescence polarization aasay to screen for inhibitors that compete for the binding of FadD28 to a bisubstrate Measured in Biochemical System Using Plate Reader - 2147-01_Inhibitor_Dose_CherryPick_Activity. Type of assay: functional, Mycobacterium tuberculosis H37Rv.

A short description of the next assay: cells. The format is functional, cell-based.
Assay [7] addresses T2, Nuclear receptor subfamily 0 group B member 1 (Homo sapiens, UniProt P51843).
T2 sequence (P51843 whole entry): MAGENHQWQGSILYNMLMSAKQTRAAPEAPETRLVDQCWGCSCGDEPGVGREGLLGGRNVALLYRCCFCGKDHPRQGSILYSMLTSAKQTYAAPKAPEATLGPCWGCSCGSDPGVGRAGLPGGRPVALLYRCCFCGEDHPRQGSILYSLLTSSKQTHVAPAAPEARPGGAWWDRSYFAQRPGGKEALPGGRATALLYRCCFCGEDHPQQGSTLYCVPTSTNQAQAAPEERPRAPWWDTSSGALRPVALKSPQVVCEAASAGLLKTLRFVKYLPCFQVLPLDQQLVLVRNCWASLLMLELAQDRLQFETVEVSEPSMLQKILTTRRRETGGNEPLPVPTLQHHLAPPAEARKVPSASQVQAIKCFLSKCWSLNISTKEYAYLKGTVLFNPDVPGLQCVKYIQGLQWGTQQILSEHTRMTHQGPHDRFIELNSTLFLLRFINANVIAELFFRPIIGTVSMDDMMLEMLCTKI
Type of assay: functional, cell-based.

For assay [8], the system named is Streptococcus sp. 'group A'. As to the kind of experiment: growth inhibition of control SK(-) GAS strain, dose response, counter-screen for streptokinase expression inhibitor project, luminescence, kanamycin, BacTiterGlo, confirmation (AID 1900). Type of assay: functional, organism-based. The settings on record: read-out: EC50.
Assay [9] has as its system HEK293. As to the kind of experiment: NOD2 signaling inhibitors in MDP-stimulated cells, cell-based, uHTS, luminescence (AID 2001). The settings on record: Homo sapiens. The format is functional.
The subject of another assay is Streptococcus. As to the kind of experiment: Group A Streptococcus viability loss, dose response, counter-screen for streptokinase expression inhibitor project, luminescence, BacTiterGlo (AID 1915).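 Further: potency for reduction of bacterial viability or growth.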 Type of assay: functional, organism-based.
A short description of assay [10]: inhibitors of HIV Env-driven cell fusion, dose response, cherry-pick (AID 652057). The format is functional, cell-based.
The next assay deals with T3, Streptokinase A (Streptococcus pyogenes serotype M1, UniProt P10520).
T3 sequence (P10520 whole entry): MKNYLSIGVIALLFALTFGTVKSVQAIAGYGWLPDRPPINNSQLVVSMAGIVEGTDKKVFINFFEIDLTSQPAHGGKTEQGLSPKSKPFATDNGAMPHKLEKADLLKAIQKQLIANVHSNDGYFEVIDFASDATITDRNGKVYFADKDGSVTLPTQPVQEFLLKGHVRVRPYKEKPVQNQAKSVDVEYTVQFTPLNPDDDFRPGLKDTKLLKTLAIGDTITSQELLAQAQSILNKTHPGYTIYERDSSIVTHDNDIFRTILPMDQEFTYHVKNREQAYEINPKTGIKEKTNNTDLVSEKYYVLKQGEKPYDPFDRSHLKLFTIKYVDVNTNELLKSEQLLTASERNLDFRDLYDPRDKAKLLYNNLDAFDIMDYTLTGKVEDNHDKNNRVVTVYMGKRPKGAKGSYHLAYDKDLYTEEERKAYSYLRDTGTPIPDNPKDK
As to the kind of experiment: S. pyogenes streptokinase expression inhibitors, potency, dose response, plasminogen activation absorbance, OD405 (AID 1914).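 Further: secreted streptokinase activity via plasminogen activation per viability signal from cell pellet.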 The format is functional, Streptococcus pyogenes M1 GAS.

A short description of assay [11]: inhibitors of clade B AD8 Env fusion, dose response, cell-based, cherry-pick (AID 652062).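 Further: luciferase signal from cell-cell fusion driven by HIV-1 clade B AD8 Env; potency is for inhibitors of fusion seen as a drop in luminescence.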 The format is functional.
Another assay concerns INS1. As to the kind of experiment: beta cell apoptosis inhibitors, cytokine rescue, dose response, luminescence, retest (AID 449756).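 Further: cell death triggered by IL-1 beta plus TNF-alpha plus IFN-gamma mixture; protective hits raise ATP signal compared with cytokine alone wells.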 The format is functional, cell-based. The settings on record: Rattus norvegicus.
The test system of assay [12] is HEK293. As to the kind of experiment: NOD1 signaling inhibitors, primary screen, cell-based, luminescence, uHTS (AID 1578). The settings on record: Homo sapiens. Type of assay: functional.
Assay [13] in a line: CEM21 lymphoblast cell cytotoxicity, dose response, cytotoxicity control for viral fusion inhibitor project, CellTiter-Glo luminescence, cherry-picked (AID 652042).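 Further: potency for signal decrease meaning cytotoxicity.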 The format is functional, cell-based.
Assay [14] is described as follows: ZM109 Env clade C HIV-1 fusion inhibitors, dose response, HeLa effector, CEM target cells, luciferase, cherry-pick (AID 652058). Type of assay: functional, cell-based.
In assay [15] the test system is HEK293. As to the kind of experiment: cells. Type of assay: functional, cell-based. The note with it: Homo sapiens.
Assay [16] deals with HEK293. As to the kind of experiment: cells. The note with it: Homo sapiens. Type of assay: functional, cell-based. The source holds these as a separate data set.
The nature of assay [17]: off-target signal loss in HeLa-CEM21 co-culture – HeLa F-luc CTL cells, cherry-picked, counter-screen for HIV-1 Env fusion inhibitor project, dose response (AID 652040).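 Further: potency for signal decrease marking cytotoxic or nonspecific inhibition.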 Type of assay: functional, cell-based.
Another assay deals with Albumin (Bos taurus, UniProt P02769). As to the kind of experiment: Counterscreen for inhibitors of T-cell receptor (TCR)-CD3 interaction: Fluorescence-based biochemical high throughput dose response assay to identify inhibitors of T-cell receptor (TCR)-CD3 interaction using a TAMRA-labeled BSA probe. The format is functional.
The nature of assay [18]: C. albicans growth with fluconazole, confirmation, fluorescence, retest (AID 2467). Type of assay: functional, cell-based.
The nature of assay [19]: NIH-3T3 fibroblast cytotoxicity, dose response, cytotoxicity control, cell-based, fluorescence, Alamar Blue, secondary assay (AID 2327).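 Further: NIH-3T3 mouse fibroblasts cultured with fluconazole at 8 µg/mL.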 Type of assay: functional.
Assay [20] deals with DNA (cytosine-5)-methyltransferase 1 (Homo sapiens, UniProt P26358). As to the kind of experiment: DNMT1 methyltransferase inhibitors, confirmation, biochemical, fluorescent molecular beacon (AID 602386). Type of assay: functional.
Assay [21] can be described thus: Counterscreen for activators of the function of SWI/SNF related, matrix associated, actin dependent regulator of chromatin, subfamily a, member 2 (SMARCA2, BRM): Luminescence-based cell-based high throughput dose response assay to identify non-selective compounds using the VP16 reporter assay. The format is functional.
Assay [22] addresses SWI/SNF-related matrix-associated actin-dependent regulator of chromatin subfamily A member 2 (Homo sapiens, UniProt P51531). As to the kind of experiment: Luminescence-based cell-based high throughput dose response assay to identify activators of the function of SWI/SNF related, matrix associated, actin dependent regulator of chromatin, subfamily a, member 2 (SMARCA2, BRM). Type of assay: functional.

Sequence of Albumin (P02769 whole entry): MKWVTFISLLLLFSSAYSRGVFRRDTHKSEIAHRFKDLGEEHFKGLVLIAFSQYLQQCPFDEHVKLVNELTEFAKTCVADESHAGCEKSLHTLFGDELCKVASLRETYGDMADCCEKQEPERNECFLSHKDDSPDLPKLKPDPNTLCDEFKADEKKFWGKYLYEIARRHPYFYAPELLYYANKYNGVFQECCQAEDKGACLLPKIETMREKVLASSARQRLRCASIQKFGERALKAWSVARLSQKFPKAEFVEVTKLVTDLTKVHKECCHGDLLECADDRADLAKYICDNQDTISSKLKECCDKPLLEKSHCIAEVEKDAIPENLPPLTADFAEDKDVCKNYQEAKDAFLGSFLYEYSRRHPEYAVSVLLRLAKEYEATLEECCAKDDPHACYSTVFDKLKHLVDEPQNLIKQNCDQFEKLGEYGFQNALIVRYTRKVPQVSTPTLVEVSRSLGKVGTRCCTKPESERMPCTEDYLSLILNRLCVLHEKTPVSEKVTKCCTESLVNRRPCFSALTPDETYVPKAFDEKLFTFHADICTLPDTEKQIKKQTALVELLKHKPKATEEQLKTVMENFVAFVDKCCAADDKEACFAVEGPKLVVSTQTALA
Sequence of DNA (cytosine-5)-methyltransferase 1 (P26358 whole entry): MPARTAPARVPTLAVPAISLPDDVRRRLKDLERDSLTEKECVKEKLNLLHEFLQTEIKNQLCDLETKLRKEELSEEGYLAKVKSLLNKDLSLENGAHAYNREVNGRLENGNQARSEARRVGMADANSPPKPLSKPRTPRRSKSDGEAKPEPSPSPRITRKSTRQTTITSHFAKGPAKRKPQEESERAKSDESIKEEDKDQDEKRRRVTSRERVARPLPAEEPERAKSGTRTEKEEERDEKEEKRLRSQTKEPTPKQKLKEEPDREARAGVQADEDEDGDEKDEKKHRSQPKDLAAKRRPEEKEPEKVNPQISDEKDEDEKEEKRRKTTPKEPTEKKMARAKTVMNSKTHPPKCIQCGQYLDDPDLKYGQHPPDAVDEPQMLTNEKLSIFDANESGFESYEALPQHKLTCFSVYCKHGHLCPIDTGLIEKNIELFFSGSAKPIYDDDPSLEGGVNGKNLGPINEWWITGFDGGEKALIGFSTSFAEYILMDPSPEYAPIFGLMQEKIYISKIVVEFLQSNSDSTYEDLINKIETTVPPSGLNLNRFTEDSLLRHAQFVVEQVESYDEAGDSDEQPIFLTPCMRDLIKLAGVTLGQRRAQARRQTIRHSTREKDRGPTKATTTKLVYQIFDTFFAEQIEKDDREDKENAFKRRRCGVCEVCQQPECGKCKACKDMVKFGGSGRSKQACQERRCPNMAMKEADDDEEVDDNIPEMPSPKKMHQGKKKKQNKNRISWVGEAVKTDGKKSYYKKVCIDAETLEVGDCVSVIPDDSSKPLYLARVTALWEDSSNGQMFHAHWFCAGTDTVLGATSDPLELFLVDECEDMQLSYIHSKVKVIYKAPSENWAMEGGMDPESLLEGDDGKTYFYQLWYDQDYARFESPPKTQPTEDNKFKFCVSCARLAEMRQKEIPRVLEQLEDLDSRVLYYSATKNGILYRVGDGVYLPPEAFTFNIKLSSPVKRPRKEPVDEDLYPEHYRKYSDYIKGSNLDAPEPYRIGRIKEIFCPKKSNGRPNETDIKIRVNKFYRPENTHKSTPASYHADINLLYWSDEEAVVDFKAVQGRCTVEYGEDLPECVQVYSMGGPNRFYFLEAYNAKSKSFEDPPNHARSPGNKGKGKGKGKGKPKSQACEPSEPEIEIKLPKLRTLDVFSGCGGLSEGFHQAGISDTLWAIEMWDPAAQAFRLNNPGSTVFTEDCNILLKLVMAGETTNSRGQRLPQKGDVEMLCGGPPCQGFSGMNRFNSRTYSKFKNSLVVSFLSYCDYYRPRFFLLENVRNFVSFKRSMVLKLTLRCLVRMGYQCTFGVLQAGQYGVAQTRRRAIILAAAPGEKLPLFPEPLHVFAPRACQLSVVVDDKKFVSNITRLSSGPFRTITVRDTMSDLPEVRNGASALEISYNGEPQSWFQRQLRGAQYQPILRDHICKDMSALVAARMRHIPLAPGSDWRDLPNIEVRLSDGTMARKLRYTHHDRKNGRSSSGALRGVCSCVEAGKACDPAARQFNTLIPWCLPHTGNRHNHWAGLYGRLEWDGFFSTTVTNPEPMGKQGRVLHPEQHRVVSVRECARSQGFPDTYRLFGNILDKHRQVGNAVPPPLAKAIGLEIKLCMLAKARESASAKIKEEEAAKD
Sequence of SWI/SNF-related matrix-associated actin-dependent regulator of chromatin subfamily A member 2 (P51531 whole entry): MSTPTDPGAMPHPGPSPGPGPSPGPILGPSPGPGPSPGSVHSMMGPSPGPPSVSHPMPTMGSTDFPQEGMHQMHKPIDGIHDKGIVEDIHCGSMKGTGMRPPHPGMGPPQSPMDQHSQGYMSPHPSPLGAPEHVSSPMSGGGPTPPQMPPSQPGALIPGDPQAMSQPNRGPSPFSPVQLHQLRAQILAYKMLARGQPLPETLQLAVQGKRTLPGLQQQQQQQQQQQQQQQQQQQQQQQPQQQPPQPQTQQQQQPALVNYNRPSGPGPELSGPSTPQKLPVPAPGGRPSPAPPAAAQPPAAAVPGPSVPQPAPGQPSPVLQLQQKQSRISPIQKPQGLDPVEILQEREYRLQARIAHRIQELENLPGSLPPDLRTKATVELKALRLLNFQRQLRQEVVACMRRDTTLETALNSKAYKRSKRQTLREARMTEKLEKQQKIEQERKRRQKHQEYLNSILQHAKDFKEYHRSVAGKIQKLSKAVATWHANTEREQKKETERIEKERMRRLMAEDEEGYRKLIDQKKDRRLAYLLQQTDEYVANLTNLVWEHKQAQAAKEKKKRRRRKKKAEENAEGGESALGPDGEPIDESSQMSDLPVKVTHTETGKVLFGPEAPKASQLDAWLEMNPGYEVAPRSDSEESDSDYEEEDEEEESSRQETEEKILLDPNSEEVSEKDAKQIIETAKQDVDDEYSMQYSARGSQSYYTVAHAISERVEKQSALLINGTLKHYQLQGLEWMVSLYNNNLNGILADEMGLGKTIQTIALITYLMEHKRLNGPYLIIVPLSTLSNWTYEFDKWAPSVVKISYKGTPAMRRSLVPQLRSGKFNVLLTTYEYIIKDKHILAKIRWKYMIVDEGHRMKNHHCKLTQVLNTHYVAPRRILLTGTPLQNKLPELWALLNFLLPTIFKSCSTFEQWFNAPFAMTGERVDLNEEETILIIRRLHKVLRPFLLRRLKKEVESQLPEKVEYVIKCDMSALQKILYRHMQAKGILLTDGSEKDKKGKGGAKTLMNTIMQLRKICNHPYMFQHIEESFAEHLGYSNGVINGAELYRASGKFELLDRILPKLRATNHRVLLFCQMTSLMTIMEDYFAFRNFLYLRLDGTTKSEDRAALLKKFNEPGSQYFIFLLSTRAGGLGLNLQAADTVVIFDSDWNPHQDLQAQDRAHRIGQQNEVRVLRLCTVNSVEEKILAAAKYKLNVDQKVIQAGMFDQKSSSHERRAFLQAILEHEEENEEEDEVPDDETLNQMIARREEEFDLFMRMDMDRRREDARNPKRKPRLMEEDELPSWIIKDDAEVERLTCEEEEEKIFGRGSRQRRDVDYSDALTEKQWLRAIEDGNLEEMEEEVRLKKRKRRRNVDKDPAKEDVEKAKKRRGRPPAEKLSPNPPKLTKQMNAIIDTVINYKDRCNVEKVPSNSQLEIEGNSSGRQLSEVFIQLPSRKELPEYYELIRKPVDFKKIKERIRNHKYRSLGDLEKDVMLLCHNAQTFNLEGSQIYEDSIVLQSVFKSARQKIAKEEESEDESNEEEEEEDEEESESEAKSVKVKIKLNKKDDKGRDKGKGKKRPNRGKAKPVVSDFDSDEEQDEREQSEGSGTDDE

Regarding `Cc1cccc(-c2ccc([C@@H]3[C@H](CO)N4CCCCN(CCC(F)(F)F)C[C@@H]34)cc2)c1`, the AC50 in assay [1] is 14.9 µM (active); in [2], 0.978 µM (active); in assay [3], 10.7 µM (active); in assay [4] it was 17.7 µM (active); in [5], 28.8 µM (active).

Regarding `O=C(CN1C(=O)S/C(=C\c2cccs2)C1=O)Nc1ccc(O)cc1C(=O)O`, the half-maximal activity concentration (AC50) in [6] is 94.3 µM (active).

For `COc1ccc(C(=O)NCCS(=O)(=O)NCCc2ccccc2)cc1`, the IC50 (in “cells”; in [7]) was > 67.5 µM (inactive) each time.

As to `O=C(Nc1ccc(OC(F)F)cc1)Nc1cccc(C(F)(F)F)c1`, the concentration at half-maximal activity (AC50) in assay [1] is 32 µM (active); in assay [10] it was 5.03 µM (active); in [11], 11 µM (active); with INS1 it was 6.07 µM (active); in [4], 6.99 µM (active); in assay [13] it was 16.1 µM (active). Besides, the concentration at half-maximal activity (AC50) in [14] was 5.35 µM (active); in assay [17], 10.5 µM (active); in [5], 10.9 µM (active). Also, the half-maximal effective concentration (EC50) in assay [8] is 13.3 µM (active); in the assay with Streptococcus it was 44.9 µM (active); on Streptokinase A, > 150 µM (not active); in the assay on HEK293 [12], 8.15 µM (active). For the same compound, the IC50 in the assay with HEK293 [9] was 4.14 µM (inactive); in the assay with HEK293 [15], 3.04 µM (active); with HEK293 [16], 6.17 µM (active).

Turning to `C[C@H](CO)N1C[C@H](C)[C@H](CN(C)S(=O)(=O)c2ccccc2)Oc2ccc(NC(=O)NC3CCCCC3)cc2CC1=O`, the AC50 in assay [10] was 1.59 µM (active); in [11], 4.13 µM (active); in assay [13], 46.9 µM (active); in assay [14] it was 0.98 µM (active); in assay [17], 2.01 µM (active).

On to `COc1cccc(C(=O)NNC(=O)c2ccc3ccccc3c2O)c1`, for which, on Albumin, the IC50 is > 94.1 µM (inactive). In addition, the figures for the half-maximal effective concentration (EC50) in [18] and in [19] were > 38 µM (not active) and > 150 µM (inconclusive), respectively.

In the case of `COc1cc2cc(Oc3ccc4ccc(=O)oc4c3)c(=O)oc2cc1O[C@@H]1O[C@H](CO)[C@@H](O)[C@H](O)[C@H]1O` [DAPHNORIN], the IC50 in [20] was 7.56 µM (active). The AC50 in assay [6] was 87.2 µM (active).

For the compound `Cc1ccc(S(=O)(=O)N2[C@@H](c3cccc(Cl)c3)C(C(=O)O)=CC[C@H]2c2cccc(C)c2)cc1`, the AC50 in [6] is 48.3 µM (active).

With `Cc1ccc2c(C)nc(Nc3nc(O)cc(CSc4nnnn4-c4ccccc4)n3)nc2c1`, the AC50 is 20.5 µM (active) in assay [10], 25.2 µM (active) in assay [13], 12.5 µM (active) in assay [14] and 25.3 µM (active) in assay [17].

`O=C(NNC(=S)NC(=O)c1cccnc1)c1ccc(F)cc1`: the IC50 on Albumin is > 94.1 µM (inactive).

As to `CCOC(=O)NC1CCc2cc(OC)c(OC)c(OC)c2-c2ccc(SC)c(=O)cc21` (centres undefined), the IC50 in the assay “cells” is > 67.5 µM (inactive); in [7], > 0.0309 µM (active).

As for `COc1ccccc1NS(=O)(=O)c1cc(NC(=O)/C=C/c2cccs2)ccc1N1CCOCC1`, the EC50 in [21] and in [22] was > 91.2 µM (inactive) each time.
